Reference: patent US10995090B2, “Substituted dihydrobenzofuran glycosidase inhibitors” (Asceneuron SA, priority 2016, dated 2021)

Target: His-Tagged hOGA (Homo sapiens (Human), UniProt O60502)
Test: Human O-GlcNAcase enzyme inhibition assay
Type: biochemical
Conditions: FL-GlcNAc substrate, 60 min at room temperature, pH 6.5; read-out: OGA IC50
Method: Example B01: Human O-GlcNAcase Enzyme Inhibition Assay
5 μl of the appropriate concentration of a solution of inhibitor in Mcllvaine's Buffer (pH 6.5) in 2% DMSO (for a dose response curve calculation) is added into each well of a 384-well plate (Greiner, 781900). Then, 20 nM of His-Tagged hOGA and 10 μM of FL-GlcNAc (Fluorescein mono-beta-D-(2-deoxy-2-N-acetyl) glucopyranoside; Marker Gene Technologies Inc, M1485) were added to the 384-well plate for a final volume of 20 μl. After incubation for 60 min at room temperature, the reaction was terminated by the addition of 10 μL of stop buffer (200 mM glycine, pH 10.75).

Chain of His-Tagged hOGA (O60502 whole entry): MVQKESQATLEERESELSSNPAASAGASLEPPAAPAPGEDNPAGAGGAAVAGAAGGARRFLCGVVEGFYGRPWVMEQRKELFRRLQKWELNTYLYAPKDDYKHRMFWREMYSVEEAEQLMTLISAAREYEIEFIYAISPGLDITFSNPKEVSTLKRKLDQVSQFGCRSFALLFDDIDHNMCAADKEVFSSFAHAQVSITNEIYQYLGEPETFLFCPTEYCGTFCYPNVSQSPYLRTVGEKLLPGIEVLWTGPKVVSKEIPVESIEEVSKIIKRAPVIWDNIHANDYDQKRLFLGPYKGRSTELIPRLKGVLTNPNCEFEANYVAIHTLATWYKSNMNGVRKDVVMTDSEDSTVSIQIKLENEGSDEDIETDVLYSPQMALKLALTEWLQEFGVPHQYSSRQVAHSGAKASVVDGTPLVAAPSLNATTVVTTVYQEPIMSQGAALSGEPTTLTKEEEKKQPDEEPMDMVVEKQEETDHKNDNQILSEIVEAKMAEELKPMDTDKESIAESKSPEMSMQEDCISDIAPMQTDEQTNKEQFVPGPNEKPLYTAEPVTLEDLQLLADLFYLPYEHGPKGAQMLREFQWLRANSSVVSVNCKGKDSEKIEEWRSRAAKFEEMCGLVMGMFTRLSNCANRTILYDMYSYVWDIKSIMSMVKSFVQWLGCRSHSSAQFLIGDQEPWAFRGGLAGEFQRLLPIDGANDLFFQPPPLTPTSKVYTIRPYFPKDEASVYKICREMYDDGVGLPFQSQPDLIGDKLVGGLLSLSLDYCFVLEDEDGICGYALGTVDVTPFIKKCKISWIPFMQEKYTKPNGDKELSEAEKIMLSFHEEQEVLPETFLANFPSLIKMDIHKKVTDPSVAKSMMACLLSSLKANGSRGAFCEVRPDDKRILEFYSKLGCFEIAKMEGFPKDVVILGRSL

SMILES	IC50
CC(=O)Nc1nnc(N2CCN(C(C)c3ccc4c(c3)OC(C)C4)CC2)s1 (racemic) [Example 1, N-(5-(4-(1-(2-methyl-2,3-dihydrobenzofuran-6-yl)ethyl)piperazin-1-yl)-1,3,4-thiadiazol-2-yl)acetamide]	< 50 nM
CC1Cc2ccc(C(C)N3CCN(c4ncc5c(n4)CCNC5=O)CC3)cc2O1 (racemic) [Example 2, 2-(4-(1-(2-methyl-2,3-dihydrobenzofuran-6-yl)ethyl)piperazin-1-yl)-7,8-dihydropyrido[4,3-d]pyrimidin-5(6H)-one]	< 50 nM
CC1Cc2ccc(C(C)N3CCN(c4ncc(S(C)(=N)=O)cn4)CC3)cc2O1 (racemic) [Example 3, Imino(methyl)(2-(4-(1-(2-methyl-2,3-dihydrobenzofuran-6-yl)ethyl)piperazin-1-yl)pyrimidin-5-yl)-λ^6-sulfanone]	< 50 nM
CC(=O)Nc1nnc(N2CCN(C(C)c3ccc4c(c3)OC(C)(C)C4)CC2)s1 (racemic) [Example 4, N-(5-(4-(1-(2,2-dimethyl-2,3-dihydrobenzofuran-6-yl)ethyl)piperazin-1-yl)-1,3,4-thiadiazol-2-yl)acetamide]	1000 to 10000 nM
CC(c1ccc2c(c1)OC(C)(C)C2)N1CCN(c2ncc(S(C)(=N)=O)cn2)CC1 (racemic) [Example 5, (2-(4-(1-(2,2-dimethyl-2,3-dihydrobenzofuran-6-yl)ethyl)piperazin-1-yl)pyrimidin-5-yl)(imino)(methyl)-λ^6-sulfanone]	1000 to 10000 nM
CC(c1ccc2c(c1)OC(C)(C)C2)N1CCN(c2ncc3c(n2)CCNC3=O)CC1 (racemic) [Example 6, 2-(4-(1-(2,2-dimethyl-2,3-dihydrobenzofuran-6-yl)ethyl)piperazin-1-yl)-7,8-dihydropyrido[4,3-d]pyrimidin-5(6H)-one]	1000 to 10000 nM
CC1Cc2ccc(C(C)N3CCN(c4ccc(S(C)(=O)=O)cc4)CC3)cc2O1 (racemic) [Example 7, 1-(1-(2-methyl-2,3-dihydrobenzofuran-6-yl)ethyl)-4-(4-(methylsulfonyl)phenyl)piperazine]	50 to 200 nM
CC(=O)Nc1nnc(N2CCN(C(C)c3cnc4c(c3)OC(C)C4)CC2)s1 (racemic) [Example 8, N-(5-(4-(1-(2-methyl-2,3-dihydrofuro[3,2-b]pyridin-6-yl)ethyl)piperazin-1-yl)-1,3,4-thiadiazol-2-yl)acetamide]	200 to 1000 nM
CC(=O)Nc1nnc(N2CCN(C(C)c3ccc4c(c3)O[C@H](C)C4)CC2)s1 (single isomer, unassigned) [Example 11]	200 to 1000 nM
CC(=O)Nc1nnc(N2CCN(C(C)c3ccc4c(c3)O[C@H](C)C4)CC2)s1 (single isomer, unassigned) [Example 12]	< 50 nM
CC(c1ccc2c(c1)O[C@H](C)C2)N1CCN(c2ncc3c(n2)CCNC3=O)CC1 (single isomer, unassigned) [Example 13, 2-(4-((S)-1-((R)-2-methyl-2,3-dihydrobenzofuran-6-yl)ethyl)piperazin-1-yl)-7,8-dihydropyrido[4,3-d]pyrimidin-5(6H)-one or 2-(4-((R)-1-((R)-2-methyl-2,3-dihydrobenzofuran-6-yl)ethyl)piperazin-1-yl)-7,8-dihydropyrido[4,3-d]pyrimidin-5(6H)-one]	< 50 nM
CC(=O)Nc1nnc(N2CCN(C(C)c3ccc4c(c3)O[C@@H](C)C4)CC2)s1 (single isomer, unassigned) [Example 16]	200 to 1000 nM
CC(=O)Nc1nnc(N2CCN(C(C)c3ccc4c(c3)O[C@@H](C)C4)CC2)s1 (single isomer, unassigned) [Example 17]	50 to 200 nM
CC(c1ccc2c(c1)O[C@@H](C)C2)N1CCN(c2ncc3c(n2)CCNC3=O)CC1 (single isomer, unassigned) [Example 18, 2-(4-((S)-1-((S)-2-methyl-2,3-dihydrobenzofuran-6-yl)ethyl)piperazin-1-yl)-7,8-dihydropyrido[4,3-d]pyrimidin-5(6H)-one or 2-(4-((R)-1-((S)-2-methyl-2,3-dihydrobenzofuran-6-yl)ethyl)piperazin-1-yl)-7,8-dihydropyrido[4,3-d]pyrimidin-5(6H)-one]	50 to 200 nM
CC(=O)Nc1nnc(N2CCN(C(C)c3ccc4c(c3)O[C@H](C)C4)CC2)s1 (stereo partly drawn) [Example 9, N-(5-(4-(1-((R)-2-methyl-2,3-dihydrobenzofuran-6-yl)ethyl)piperazin-1-yl)-1,3,4-thiadiazol-2-yl)acetamide]	< 50 nM
CC(c1ccc2c(c1)O[C@H](C)C2)N1CCN(c2ncc3c(n2)CCNC3=O)CC1 (stereo partly drawn) [Example 10, 2-(4-(1-((R)-2-methyl-2,3-dihydrobenzofuran-6-yl)ethyl)piperazin-1-yl)-7,8-dihydropyrido[4,3-d]pyrimidin-5(6H)-one]	< 50 nM
CC(=O)Nc1nnc(N2CCN(C(C)c3ccc4c(c3)O[C@@H](C)C4)CC2)s1 (stereo partly drawn) [Example 14, N-(5-(4-(1-((S)-2-methyl-2,3-dihydrobenzofuran-6-yl)ethyl)piperazin-1-yl)-1,3,4-thiadiazol-2-yl)acetamide]	200 to 1000 nM
CC(c1ccc2c(c1)O[C@@H](C)C2)N1CCN(c2ncc3c(n2)CCNC3=O)CC1 (stereo partly drawn) [Example 15, 2-(4-(1-((S)-2-methyl-2,3-dihydrobenzofuran-6-yl)ethyl)piperazin-1-yl)-7,8-dihydropyrido[4,3-d]pyrimidin-5(6H)-one]	200 to 1000 nM
CC(c1ccc2c(c1)O[C@H](C)C2)N1CCN(c2ncc(S(C)(=O)=O)cn2)CC1 (stereo partly drawn) [Example 19, 2-(4-(1-((R)-2-methyl-2,3-dihydrobenzofuran-6-yl)ethyl)piperazin-1-yl)-5-(methylsulfonyl)pyrimidine]	< 50 nM
CC(c1ccc2c(c1)O[C@H](C)C2)N1CCN(c2ncc(S(C)(=N)=O)cn2)CC1 (stereo partly drawn) [Example 20, imino(methyl)(2-(4-(1-((R)-2-methyl-2,3-dihydrobenzofuran-6-yl)ethyl)piperazin-1-yl)pyrimidin-5-yl)-λ^6-sulfanone]	< 50 nM
CC(c1ccc2c(c1)O[C@H](C)C2)N1CCN(c2n[nH]c(=O)s2)CC1 (stereo partly drawn) [Example 21, 5-(4-(1-((R)-2-methyl-2,3-dihydrobenzofuran-6-yl)ethyl)piperazin-1-yl)-1,3,4-thiadiazol-2(3H)-one]	50 to 200 nM
